Reference: article PMC10590419, “Structural and mechanistic insights into the inhibition of respiratory syncytial virus polymerase by a non-nucleoside inhibitor” (Communications Biology, 2023)
Where “and” joins values, the source holds several entries; their conditions need not be identical. Equal entries are not always repeated. Where two headings read alike, the source gives them in different places.

Columns and labels:
RSV L+P RdRp = RSV L+P RdRp (Human respiratory syncytial virus A, UniProt P28887); assay: Biotinylated primer extension Flashplate assay, recombinant RSV L+P; type: biochemical, Human RSV (strain A2)
Method: RNA polymerase reaction samples consisted of recombinant RSV L-P polymerase (3 nM) in a buffer containing Tris pH 7.5 (20 mM), KCl (10 mM), dithiothreitol (2 mM), Triton (0.01%), DMSO (10% v/v) with compound at appropriate dilution (10 points 1:5-fold serial dilution starting at 1 µM), and MgCl2 (6 mM). Reactions were started at 30 °C by adding an oligonucleotide template sequence derived from the RSV leader promoter (5’-[…]-3’, 0.2 μM) together with a biotinylated primer (5’-bi-ACGC, 4 μM) mixed with GTP (10 µM), ATP (10 µM) and [α-^33P]CTP (0.025 µM, 3000 Ci/mmol) in a final volume of 10 μL. Reactions were stopped after 120 min by the addition of 90 µl EDTA (0.1 M). Samples were transferred to Flashplates and left 1 h at room temperature for incubation before being washed twice with 0.1% Tween 20, sealed (Topseal) and read on a Wallac MicroBeta TriLux Liquid Scintillation Counter.

[1] = tested on: HMPV (recombinant CAN97-83-derived strain encoding GFP); assay: microbe, parasite or virus in culture; type: cell-based; conditions: human metapneumovirus, LLC-MK2
[2] = tested on: RSV A clinical isolates and laboratory strains; assay: Inhibition of RSV-A clinical isolates and laboratory strains, RT-qPCR, HeLa; type: cell-based; conditions: human respiratory syncytial virus, 10 strains, read-out: Median EC50
Method: Then, 100 µL of a HeLa cell suspension (5 × 10^4 cells/mL) in culture medium was added to each well. […] After 3 days of incubation, the supernatant was removed from wells. Plates were washed twice with ice-cold PBS (100 µL/well), and were then sealed and stored overnight at −80 °C. Next, 50 µL of lysis solution supplemented with DNAse was added to the plates and incubated for 5 min followed by the addition of 5 µL stop solution (Ambion Cell-to-CT bulk lysis reagent buffer). […] Roche) for cDNA synthesis. Reverse transcription was performed at 42 °C for 30 min, followed by denaturation at 95 °C for 5 min. […] The reaction consisted of a denaturation step (95 °C for 600 s), 45 cycles of denaturation (95 °C for 15 s) and annealing/elongation (60 °C for 60 s), and a step of cooling (40 °C for 10 s).

[3] = tested on: RSV A2 replicon in APC-126 cells; assay: RSV subgenomic replicon (minireplicon) assay, luciferase; type: cell-based; conditions: human respiratory syncytial virus, APC-126, 72 h, read-out: Median EC50
Method: The RSV subgenomic replicon system was licensed from Apath (Apath, NY, USA)[49],[50]. The BHK-derived cell line (APC-126) containing the stable RSV A2 replicon was cultured in DMEM/Hams F-12 medium supplemented with 10% (v/v) FBS (Gibco), 1% (v/v) penicillin (10,000 units/mL) and streptomycin (10,000 µg/mL) solution (Gibco), 1% (v/v) MEM non-essential amino acids solution (Gibco), 5% (v/v) Tryptose Phosphate Broth solution (29.5 g/l) (Sigma-Aldrich) and 10 µg/ml of blasticidin solution (Invivogen). Cells were maintained at 37 °C in a humidified 5% CO2 atmosphere. 5000 cells were plated in 96-well clear plates (Corning) in 100 µl/well of medium. […] Cell viability (CC50 and CC90) was measured with a CellTiter-Glo cell proliferation assay (Promega, 100 µl/well of reagent). Results were expressed as EC50 and EC90 values as well as CC50 and CC90 values.

recombinant RSV L+P = recombinant RSV L+P (Human respiratory syncytial virus A, UniProt P28887); assay: De novo RNA synthesis assay, recombinant RSV L+P, Tr14 template; type: biochemical, Human RSV (strain A2)
Method: The reactions were performed as described by Cressey et al.[22]. […] The reactions were incubated at 30 °C for 1 h and then stopped by adding gel loading buffer containing 90% formamide, 50 mM EDTA, 0.05% Xylene Cyanol and Bromophenol Blue. Samples were denatured at 95 °C for 5 min and run on a 22.5% polyacrylamide urea sequencing gel at 80 W with radiolabeled RNA markers generated via the T7 DNA dependent RNA polymerase (DdRp). The gel was dried, exposed to a phosphor-screen, scanned on a Typhoon scanner (GE Healthcare), and quantified using ImageQuant (GE Healthcare). Bands were identified as extension products or initiation products by the 11-nucleotide ppp[…] and 2-nucleotide pppGA RNA markers, respectively. Radiolabeled RNA markers corresponding to pppGA, ppp[…], and intermediates were generated utilizing a reaction by T7 DNA-dependent RNA polymerase (AM2718, Ambion)[53]. DNA oligos: 5’-[…]-3’ (T7 promoter primer) and 5’-[…]-3’ (T7 promoter primer + target sequence template) were synthesized at IDT. Due to a mechanistic idiosyncrasy in T7 DdRp, an additional Adenosine residue was placed between the T7 promoter and the target sequence in the template. Each 40 µl reaction contained 5 mM ATP, 5 mM CTP, 5 mM GTP, 100 nM annealed DNA primer and template, 20 U T7 DdRp, 1x T7 DdRp Buffer (40 mM Tris pH 7.8, 20 mM NaCl, 6 mM MgCl2, 2 mM Spermidine HCl, 10 mM DTT), and 20 µCi of [α-^33P]ATP. Reactions were incubated at 30 °C for 5 h. Then 1 µl of reconstituted DNase I (Ambion) was added and incubated for an additional 10 min at 37 °C. This reaction was quenched with the addition of 60 µl gel loading buffer.
Supplementary Figure 4. Inhibition of de novo initiation and extension of RSV L-P RNA synthesis by JNJ-8003. a. reaction scheme. b. a sequencing gel image showing RNA products […]
contained 10 nM RSV L-P, 2 μM RNA template (Tr14), 500 μM GTP, 10 μM ATP, 170 nM [α-33P]ATP, so RNA synthesis started from +3 site and paused with a major 11-mer product. c.
Data was from the quantitation results of the gel image in b. d. The reactions […]
Data points indicate the mean, and error bars depict the SD of three technical replicates. e. a sequencing gel image showing RNA products synthesized by RSV L-P along with no enzyme control. Reaction condition was same as in b with no compound added. […]

[4] = repeat in triplicate, 0.093 nM to 200 nM

recombinant RSV L+P, sequence (P28887 whole entry): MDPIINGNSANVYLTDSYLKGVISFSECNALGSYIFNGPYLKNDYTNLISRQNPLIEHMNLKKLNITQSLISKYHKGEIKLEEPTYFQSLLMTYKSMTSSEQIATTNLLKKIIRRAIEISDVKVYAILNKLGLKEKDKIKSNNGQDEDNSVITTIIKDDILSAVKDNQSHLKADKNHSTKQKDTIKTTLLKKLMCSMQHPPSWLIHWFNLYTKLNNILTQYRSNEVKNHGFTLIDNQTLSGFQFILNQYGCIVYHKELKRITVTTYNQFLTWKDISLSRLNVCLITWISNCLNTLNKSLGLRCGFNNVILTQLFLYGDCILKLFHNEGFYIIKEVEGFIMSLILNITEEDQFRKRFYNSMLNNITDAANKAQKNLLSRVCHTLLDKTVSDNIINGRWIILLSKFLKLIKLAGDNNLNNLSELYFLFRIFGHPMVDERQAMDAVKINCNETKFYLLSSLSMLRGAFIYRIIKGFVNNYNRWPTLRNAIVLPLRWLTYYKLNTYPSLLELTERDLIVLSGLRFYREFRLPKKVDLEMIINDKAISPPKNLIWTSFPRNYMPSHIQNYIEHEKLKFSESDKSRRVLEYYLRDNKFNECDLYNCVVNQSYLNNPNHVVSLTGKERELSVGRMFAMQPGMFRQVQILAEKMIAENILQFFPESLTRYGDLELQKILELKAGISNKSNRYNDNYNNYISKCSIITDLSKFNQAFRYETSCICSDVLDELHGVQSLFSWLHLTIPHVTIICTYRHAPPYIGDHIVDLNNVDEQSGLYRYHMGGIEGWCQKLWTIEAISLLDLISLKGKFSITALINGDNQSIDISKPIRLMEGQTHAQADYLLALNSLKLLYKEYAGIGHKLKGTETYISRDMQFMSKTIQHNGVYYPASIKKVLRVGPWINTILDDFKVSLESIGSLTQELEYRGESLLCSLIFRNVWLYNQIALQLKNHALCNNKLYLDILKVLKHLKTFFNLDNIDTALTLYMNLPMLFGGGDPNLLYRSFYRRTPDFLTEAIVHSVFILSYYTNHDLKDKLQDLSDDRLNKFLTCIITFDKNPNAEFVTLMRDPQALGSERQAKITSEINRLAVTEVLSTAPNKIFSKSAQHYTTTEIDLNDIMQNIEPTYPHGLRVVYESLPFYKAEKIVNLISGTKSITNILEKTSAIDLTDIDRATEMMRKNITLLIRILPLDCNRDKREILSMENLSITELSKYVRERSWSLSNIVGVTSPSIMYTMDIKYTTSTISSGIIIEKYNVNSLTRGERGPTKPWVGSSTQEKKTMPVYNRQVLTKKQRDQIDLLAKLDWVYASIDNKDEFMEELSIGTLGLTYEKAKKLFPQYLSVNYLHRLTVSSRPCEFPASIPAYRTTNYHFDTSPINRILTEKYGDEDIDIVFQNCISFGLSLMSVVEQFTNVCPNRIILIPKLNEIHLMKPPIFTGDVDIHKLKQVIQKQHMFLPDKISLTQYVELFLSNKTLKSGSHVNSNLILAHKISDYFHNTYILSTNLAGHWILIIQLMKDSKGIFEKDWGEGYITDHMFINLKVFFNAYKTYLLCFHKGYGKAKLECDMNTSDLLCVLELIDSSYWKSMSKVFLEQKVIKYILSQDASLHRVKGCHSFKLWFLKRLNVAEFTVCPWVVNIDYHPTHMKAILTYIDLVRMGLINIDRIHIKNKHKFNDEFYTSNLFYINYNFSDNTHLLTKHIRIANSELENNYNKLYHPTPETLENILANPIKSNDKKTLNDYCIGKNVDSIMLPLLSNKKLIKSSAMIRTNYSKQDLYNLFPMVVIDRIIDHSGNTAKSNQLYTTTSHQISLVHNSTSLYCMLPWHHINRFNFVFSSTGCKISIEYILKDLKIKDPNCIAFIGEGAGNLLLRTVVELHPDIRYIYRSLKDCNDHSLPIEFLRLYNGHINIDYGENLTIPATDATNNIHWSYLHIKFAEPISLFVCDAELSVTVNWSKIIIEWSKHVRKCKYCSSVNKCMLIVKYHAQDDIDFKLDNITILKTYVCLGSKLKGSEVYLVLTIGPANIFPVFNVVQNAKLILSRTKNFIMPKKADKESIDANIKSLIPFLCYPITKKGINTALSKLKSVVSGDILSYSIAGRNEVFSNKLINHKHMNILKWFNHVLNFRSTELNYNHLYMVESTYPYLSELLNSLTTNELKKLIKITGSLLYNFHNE
recombinant RSV L+P, sequence (P03421 whole entry, further chain): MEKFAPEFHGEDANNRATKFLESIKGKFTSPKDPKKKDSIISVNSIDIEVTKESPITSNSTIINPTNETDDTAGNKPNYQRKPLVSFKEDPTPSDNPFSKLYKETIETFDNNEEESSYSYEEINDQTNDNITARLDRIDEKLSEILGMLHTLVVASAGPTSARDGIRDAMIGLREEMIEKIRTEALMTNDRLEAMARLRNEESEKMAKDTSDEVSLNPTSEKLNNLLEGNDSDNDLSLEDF
RSV L+P RdRp, sequence (P03421 whole entry): as the sequence (P03421 whole entry, further chain) above
RSV L+P RdRp, sequence (P28887 whole entry): as the sequence (P28887 whole entry) above

## COc1cc(C(=O)NC[C@](O)(c2cc(C(C)(C)O)c(F)c(-c3ccc(F)cc3)n2)C(F)(F)F)cc2cc(C)nnc12 [JNJ-8003]
RSV L+P RdRp; RSV L+P RdRp primer extension, n 18, read-out: Median IC50
  IC50: 0.73 nM
RSV L+P RdRp; RdRp activity, Flashplate (Fig. 1c), read-out: IC50
  IC50: 0.67 nM
RSV L+P RdRp; [JNJ-8003] 0.00032 uM, replicates 1-4
  inhibition at 0.00032 µM: 28.6%
RSV L+P RdRp; [JNJ-8003] 0.00032 uM, replicates 1-4, 0.00032 µM
  % inhibition: 26.2934% and 27.7635% and 40.6870%
RSV L+P RdRp; [JNJ-8003] 0.0016 uM, replicates 1-4
  inhibition at 0.0016 µM: 55.8%
RSV L+P RdRp; [JNJ-8003] 0.0016 uM, replicates 1-4, 0.0016 µM
  % inhibition: 60.6805% and 64.1654% and 73.5323%
RSV L+P RdRp; [JNJ-8003] 0.008 uM, replicates 1-4
  inhibition at 0.008 µM: 81.4%
RSV L+P RdRp; [JNJ-8003] 0.008 uM, replicates 1-4, 0.008 µM
  % inhibition: 89.6905% and 92.3440% and 94.9354%
RSV L+P RdRp; [JNJ-8003] 0.04 uM, replicates 1-4
  inhibition at 0.04 µM: 93%
RSV L+P RdRp; [JNJ-8003] 0.04 uM, replicates 1-4, 0.04 µM
  % inhibition: 96.5839% and 97.2066% and 98.2976%
RSV L+P RdRp; [JNJ-8003] 0.2 uM, replicates 1-4
  inhibition at 0.2 µM: 95.2%
RSV L+P RdRp; [JNJ-8003] 0.2 uM, replicates 1-4, 0.2 µM
  % inhibition: 96.5743% and 98.0014% and 97.9026%
[1]
  EC50: 88 nM
[2]
  EC50: 0.18 nM
[3]
  EC50: 0.15 nM
Recombinant RSV L+P; 9.3 pM to 200 μM
  maximal inhibition, 11-mer product: 99%
  maximal inhibition, de novo pppGpA formation: 65%
Recombinant RSV L+P; 9.3 pM to 200 μM, read-out: IC50, 11-mer product
  IC50: 4.7 nM
Recombinant RSV L+P; +3 site, tr-14, 9.3 pM to 200 μM, read-out: IC50, de novo pppGpA dinucleotide formation
  IC50: 5.1 nM
Recombinant RSV L+P; [4]
  maximal inhibition, 11-mer product: 100%
  maximal inhibition, de novo pppGpA formation: 69%
Recombinant RSV L+P; repeat in triplicate, 0.093 nM to 200 nM, read-out: IC50, 11-mer product
  IC50: 3.6 nM
Recombinant RSV L+P; repeat in triplicate, 0.093 nM to 200 nM, read-out: IC50, de novo pppGpA formation
  IC50: 2.3 nM
